The values below come from paper PMC3673896, “3,4-dihydroxyphenyl acetic acid and (+)-epoxydon isolated from marine algae-derived microorganisms induce down regulation of epidermal growth factor activated mitogenic signaling cascade in Hela cells” (Cancer Cell International, 2013).

Each structure is given as a SMILES string.

The test has as its target EGF receptor tyrosine kinase (EGFR) (Homo sapiens, UniProt P00533). Briefly: AlphaScreen P-Tyr-100 kinase assay with poly[Glu:Tyr] ([…]) substrate. The test is classed as biochemical.

Chain of EGF receptor tyrosine kinase (EGFR) (P00533 669-1210 limits assumed): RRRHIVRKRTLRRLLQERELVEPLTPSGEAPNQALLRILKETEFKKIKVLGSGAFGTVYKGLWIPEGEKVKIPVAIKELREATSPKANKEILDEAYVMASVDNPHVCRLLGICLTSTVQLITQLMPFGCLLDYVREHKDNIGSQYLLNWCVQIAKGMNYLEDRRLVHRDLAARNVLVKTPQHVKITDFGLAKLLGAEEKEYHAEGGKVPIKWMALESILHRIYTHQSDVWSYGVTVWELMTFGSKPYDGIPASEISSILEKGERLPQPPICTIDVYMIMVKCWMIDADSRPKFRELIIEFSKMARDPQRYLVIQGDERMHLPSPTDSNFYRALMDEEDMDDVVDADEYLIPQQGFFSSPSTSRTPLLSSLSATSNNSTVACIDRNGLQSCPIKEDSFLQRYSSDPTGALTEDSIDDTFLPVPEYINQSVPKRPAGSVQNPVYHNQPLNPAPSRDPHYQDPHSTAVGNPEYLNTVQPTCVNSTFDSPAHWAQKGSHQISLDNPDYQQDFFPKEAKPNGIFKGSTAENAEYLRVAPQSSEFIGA

The compound `O=C(O)Cc1ccc(O)c(O)c1` [3,4-dihydroxyphenyl acetic acid] showed an IC50 of 16.7 µM. Then `O=C1C(CO)=C[C@@H](O)[C@H]2O[C@@H]12` [(+)-epoxydon], with 3.84 µM.
